Data taken from US20070232492A1, “Herbicidal Composition” (Ishihara Sangyo Kaisha, LTD., priority 2004, published 2007).
Where two headings read alike, the source gives them in different places.

How the values were obtained:
Format in all cases: in vivo
[1] = test system: barnyardgrass (Echinochloa oryzicola vasing); assay: Growth inhibition of barnyardgrass in paddy soil pots, application under submerged condition, visual rating (observed value) and Colby expected value; settings: Echinochloa oryzicola, soil, read-out: Growth inhibition rate (%) Observed; for inhibition at 2.3 g/ha: 0.023 g/a; for inhibition at 4.5 g/ha: 0.045 g/a
Procedure, shortened: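 Barnyardgrass (Echinochloa oryzicola vasing) seeds were sown in paddy field soil in 1/10,000 are pots and kept irrigated at a water depth of 3.5 cm. Wettable powders of the active ingredients were diluted with water and applied under submerged conditions at the prescribed amounts. Growth was visually scored from 0% (as untreated) to 100% (complete kill), and expected values were calculated with Colby's formula.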

[2] = test system: flatsedge (Cyperus serotinus); assay: Growth inhibition of flatsedge (planted tubers) in paddy soil pots, application under submerged condition, visual rating and Colby expected value; settings: Cyperus serotinus, soil, 696 h, 2.8 to 3.2 leaf stage, 29 days after application, read-out: Growth inhibition rate (%) Observed
Description: (§1) When the herbicidal activity in a case where two active ingredients are combined, is larger than the simple sum of the respective herbicidal activities of the two active ingredients (the expected activity), it is called a synergistic effect. The activity expected by the combination of two active ingredients can be calculated as follows (Colby S. R., “Weed”, vol. 15, p. 20-22, 1967). E=p+q−(p×q÷100) where p: growth inhibition rate when treated with x (g/a) of herbicide X,
(§2) q: growth inhibition rate when treated with y (g/a) of herbicide Y,
(§3) E: growth inhibition rate expected when treated with x (g/a) of herbicide X and y (g/a) of herbicide Y.
(§4) Namely, when the actual growth inhibition rate (observed value) is larger than the growth inhibition rate by the above calculation (expected value), the activity by the combination can be regarded as showing a synergistic effect.
(§5) Growth inhibition rate (%)=0% (equivalent to the non-treated area) to 100% (complete kill)
(§6) Paddy field soil was put into a 1/10,000 are pot, and tubers of flatsedge (Cyperus serotinus) were planted and left to stand under an irrigated condition with a water depth of 3.5 cm. When flatsedge reached 2.8 to 3.2 leaf stage, wettable powders of compound A2 and compound (B1.2) were, respectively, diluted with water and applied under submerged condition so that the active ingredients became the prescribed amounts, respectively. The state of growth was visually observed 29 days after application, and evaluation and calculation were carried out in the same manner as in the above Test Example 1.
Paddy field soil was put into a 1/3,000 are pot, and tubers of flatsedge (Cyperus serotinus) were planted and left to stand under an irrigated condition with a water depth of 3.5 cm. When flatsedge reached 4 leaf stage, a wettable powder of compound A2 and an emulsifiable concentrate of compound C4 were, respectively, diluted with water and applied under submerged condition so that the active ingredients became the prescribed amounts, respectively. The state of growth was visually observed 21 days after application, and the growth inhibition rate (%) evaluated in the same manner as in the above Test Example 1 (observed value) and the growth inhibition rate (%) calculated by the above-mentioned Colby method (expected value) are shown in Table 32.
as §6, with “2.5” for “2.8”, “3.0” for “3.2”, “A2, compound (D2.3)” for “A2”, “(B4.1)” for “(B1.2)”, “30” for “29”, “evaluated” for “evaluation and calculation were carried out”
as §6, with “2.5” for “2.8”, “3.0” for “3.2”, “A2, compound (D2.3)” for “A2”, “(B6.1)” for “(B1.2)”, “30” for “29”, “evaluated” for “evaluation and calculation were carried out”
Paddy field soil was put into a 1/10,000 are pot, and tubers of flatsedge (Cyperus serotinus) were planted and left to stand under an irrigated condition with a water depth of 3.5 cm. When flatsedge reached 2.5 to 3.0 leaf stage, wettable powders of compound A2, compound (D2.3) and compound (B8.1) were, respectively, diluted with water and applied under submerged condition so that the active ingredients became the prescribed amounts, respectively. […]

[3] = Growth inhibition of mixed broadleaf paddy weeds in paddy soil pots, application under submerged condition, visual rating and Colby expected value; settings: mixed broadleaf paddy weeds, soil, 504 h; 0.12 g/a; false pimpernel one leaf-pair stage; 21 days after application; read-out: Growth inhibition rate (%) Observed
Description: as §1, §2, §3, §4, §5
Paddy field soil was put into a 1/1,700 are pot, and mixed seeds of false pimpernel (Lindernia pyxidaria), abunome (Dopatrium junceum), long stem waterwort (Elatine triandra SCHK.) and toothcup (Rotala india) were sown and left to stand under an irrigated condition with a water depth of 3.5 cm. When false pimpernel reached one leaf-pair stage, wettable powders of compound A2 and compound (B1.2) were, respectively, diluted with water and applied under submerged condition so that the active ingredients became the prescribed amounts, respectively. The state of growth was visually observed 21 days after application, and evaluation and calculation were carried out in the same manner as in the above Test Example 1.
Paddy field soil was put into a 1/1,700 are pot, and mixed seeds of false pimpernel (Lindernia pyxidaria), abunome (Dopatrium junceum), long stem waterwort (Elatine triandra SCHK.) and toothcup (Rotala india) were sown and left to stand under an irrigated condition with a water depth of 3.5 cm. When false pimpernel reached two leaf-pair stage, a wettable powder of compound A2 and an emulsifiable concentrate of compound (B8.1) were, respectively, diluted with water and applied under submerged condition so that the active ingredients became the prescribed amounts, respectively. The state of growth was visually observed 22 days after application, and evaluation and calculation were carried out in the same manner as in the above Test Example 1.

[4] = 504 h, 3.0 to 3.3 leaf stage, 21 days after application
[5] = 528 h, 2.5 to 3.0 leaf stage, 22 days after application

## COc1cc(OC)nc(NC(=O)NS(=O)(=O)c2c(-c3nnn(C)n3)cnn2C)n1 [Compound (B1.2), azimsulfuron]
[1]; [4]
  inhibition at 2.3 g/ha: 0%
  inhibition at 4.5 g/ha: 7%
[1]; [5]
  inhibition at 2.3 g/ha: 0%
  inhibition at 4.5 g/ha: 53%
[1]; 696 h, 0.03 g/a, 2.4 to 3.2 leaf stage, 29 days after application, Test Example 45
  inhibition at 3 g/ha: 30%
[1]; 696 h, 0.06 g/a, 2.4 to 3.2 leaf stage, 29 days after application, Test Example 45
  inhibition at 6 g/ha: 57%
[1]; 696 h, 0.075 g/a, 2.4 to 3.2 leaf stage, 29 days after application, Test Example 45
  inhibition at 7.5 g/ha: 60%
[2]; 0.0125 g/a
  inhibition at 1.25 g/ha: 20%
[2]; 0.015 g/a
  inhibition at 1.5 g/ha: 33%
[2]; 0.0188 g/a
  inhibition at 1.88 g/ha: 58%
[3]
  inhibition at 12 g/ha: 60%
